One assay concerns the target T1, pSTAT6 (Homo sapiens, UniProt P42226).
T1 construct: pY641-STAT6 MSD read-out
T1 sequence (P42226 1-847): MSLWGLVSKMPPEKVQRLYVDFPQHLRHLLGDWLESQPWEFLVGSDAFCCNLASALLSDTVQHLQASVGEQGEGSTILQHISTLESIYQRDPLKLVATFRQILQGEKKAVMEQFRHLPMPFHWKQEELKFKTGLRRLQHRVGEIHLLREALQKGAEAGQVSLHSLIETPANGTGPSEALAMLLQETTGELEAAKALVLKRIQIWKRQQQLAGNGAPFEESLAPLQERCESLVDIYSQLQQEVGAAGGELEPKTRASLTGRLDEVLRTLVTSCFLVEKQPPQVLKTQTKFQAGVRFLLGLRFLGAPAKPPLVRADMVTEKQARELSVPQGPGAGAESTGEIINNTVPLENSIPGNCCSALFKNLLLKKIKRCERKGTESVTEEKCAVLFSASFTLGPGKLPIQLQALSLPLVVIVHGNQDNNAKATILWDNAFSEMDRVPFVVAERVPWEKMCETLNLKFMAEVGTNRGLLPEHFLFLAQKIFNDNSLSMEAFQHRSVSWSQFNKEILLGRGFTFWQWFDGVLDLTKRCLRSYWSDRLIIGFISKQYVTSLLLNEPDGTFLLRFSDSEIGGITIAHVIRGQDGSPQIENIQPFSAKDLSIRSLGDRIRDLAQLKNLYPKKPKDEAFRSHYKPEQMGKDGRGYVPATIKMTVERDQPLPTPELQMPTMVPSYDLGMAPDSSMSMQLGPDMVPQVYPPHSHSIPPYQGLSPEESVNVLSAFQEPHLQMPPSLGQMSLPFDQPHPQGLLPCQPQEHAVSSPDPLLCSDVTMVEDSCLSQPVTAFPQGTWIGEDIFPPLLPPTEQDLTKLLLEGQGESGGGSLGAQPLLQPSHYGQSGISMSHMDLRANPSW
Nature of the assay: MSD-pSTAT-PBMC Assay, pSTAT6 (IL-4 stimulated PBMC). The class given is cell-based. The following applies: compound 3 hrs, then 1 ng/mL IL-4 for 10 min, pY641-STAT6, read-out: pSTAT6 IC50. In a few lines:
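Human PBMC were recovered overnight, treated 3 h with compound, then stimulated for 10 min with 10 ng/mL IL-6 (pSTAT3) or 1 ng/mL IL-4 (pSTAT6). Lysates were read by MSD sandwich immunoassay, with total STAT capture and pY705-STAT3 or pY641-STAT6 detection. Signal minus unstimulated wells was normalized to DMSO, and IC50 came from a variable-slope fit.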

In another assay the target is T2, STAT6 (Homo sapiens, UniProt P42226).
T2 construct: Recombinant STAT6 protein (STAT6(W123-T658))
T2 sequence (P42226 123-658): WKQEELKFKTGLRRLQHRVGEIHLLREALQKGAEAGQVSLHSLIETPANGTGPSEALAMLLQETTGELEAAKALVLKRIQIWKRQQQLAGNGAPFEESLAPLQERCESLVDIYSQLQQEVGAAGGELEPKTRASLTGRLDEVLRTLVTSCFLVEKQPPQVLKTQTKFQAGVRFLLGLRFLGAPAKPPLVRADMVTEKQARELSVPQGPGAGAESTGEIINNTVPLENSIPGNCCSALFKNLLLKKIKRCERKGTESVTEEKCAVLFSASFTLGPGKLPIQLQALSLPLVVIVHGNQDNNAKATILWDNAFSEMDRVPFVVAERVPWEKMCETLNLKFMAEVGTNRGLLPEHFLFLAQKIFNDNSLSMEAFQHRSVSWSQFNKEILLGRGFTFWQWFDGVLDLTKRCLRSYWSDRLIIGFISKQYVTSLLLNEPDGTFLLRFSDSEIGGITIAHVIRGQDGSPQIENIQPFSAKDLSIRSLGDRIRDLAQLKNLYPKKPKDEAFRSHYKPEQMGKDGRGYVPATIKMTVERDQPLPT
The experiment in a line: STAT6 Fluorescence Polarization (FP) Assay. The class given is binding. The note with it: recombinant STAT6(W123-T658) 250 nM; probe 5-FAM-Ap[…]-NH2 2 nM; 45 min, room temperature; read-out: STAT6 FP IC50. Here is the method:
STAT6 Fluorescence Polarization (FP) Assay
An FP assay was developed to determine IC50 values for test substances. Recombinant STAT6 protein (STAT6(W123-T658)) at 250 nM was combined with a fluorescently labeled, phosphotyrosine peptide probe (5-FAM-Ap[…]-NH2) at 2 nM in FP buffer (10 mM HEPES pH 7.4, 50 mM NaCl, 1 mM EDTA, 0.05% Tween 20, 2 mM DTT), 50 μL of STAT6-probe mixture was added to serial diluted compounds in black, 96-well plates (Greiner BioOne 655076) to a final concentration of 1% DMSO. Reaction components were mixed, and FP was measured after 45-minute incubation at room temperature using a Tecan Spark multimode plate reader. FP signal (mP) was plotted against the log concentration of the test substances and IC50 values were calculated by nonlinear regression analysis using GraphPad Prism software. For STAT6 FP assay. A=≤300 nM; B=>300-3000 nM; C=>3-30 μM; and D=>30 μM.
For orientation: In fluorescence polarisation assays a small probe gives low polarisation when free and higher when bound to something large.

For a further assay, the target named is T3, STAT3 (Homo sapiens, UniProt P40763).
T3 construct: Recombinant STAT3 protein (STAT3(G127-1722))
The experiment in a line: STAT3 Fluorescence Polarization (FP) Assay. The note with it: recombinant STAT3 25 nM; probe 5-FAM-GpYLPQTV-NH2 2 nM; 45 min, room temperature; read-out: STAT3 FP IC50. The class given is binding.

The next assay deals with T4, pSTAT3 (Homo sapiens, UniProt P40763).
T4 construct: pY705-STAT3 MSD read-out
The experiment in a line: MSD-pSTAT-PBMC Assay, pSTAT3 (IL-6 stimulated PBMC). The class given is cell-based. The note with it: read-out: pSTAT3 IC50, compound 3 hrs, then 10 ng/mL IL-6 for 10 min, pY705-STAT3. The source says: Cryopreserved Peripheral Blood Mononuclear Cells (PBMC) are from AllCells. Recombinant Human IL-4 and IL-6 are from Peprotech. Mouse monoclonal anti-STAT3 antibody, rabbit monoclonal anti-pY705-STAT3 antibody, rabbit monoclonal Anti-pY641-STAT6 antibody, and lysis buffer are from Cell Signaling Technology (CST). Mouse monoclonal anti-STAT6 antibody is from BioLegend. Assay plates, blocker, and anti-rabbit secondary antibody are from Meso Scale Discovery (MSD).
Cryopreserved PBMCs were thawed out and allowed to recover overnight in IMDM+10% heat-inactivated FBS prior to plating 50,000 (STAT3) or 25,000 (STAT6) cells per well in 96-well U-bottom tissue culture plates. Cells were treated with compound for 3 hrs. then stimulated with 10 ng/mL IL-6 (STAT3) or 1 ng/mL IL-4 (STAT6) for 10 min. Cells were then spun down and washed with ice-cold PBS prior to lysing the cell pellet with 1× lysis buffer (CST) with 1×HALT protease and phosphatase inhibitor cocktail (Thermo). Lysates were transferred to and incubated overnight at 4° C. with shaking in QuickPlex 96-well high bind assay plates (MSD) pre-coated overnight with 30 μL per well of 0.6 μg/mL mouse monoclonal anti-STAT3 antibody (STAT3) or 2 μg/mL mouse monoclonal anti-STAT6 antibody (STAT6) in 1×PBS, and pre-blocked for 1 hour with 3% Blocker-A (MSD). Captured protein in the assay plates were then washed and probed with 25 μL per well of 0.25 μg/ml rabbit monoclonal anti-pY705-STAT3 antibody (STAT3) or 0.18 μg/ml rabbit monoclonal Anti-pY641-STAT6 antibody (STAT6) in 1% Blocker-A for 1 hour at room temperature with shaking, then washed and probed with 25 ul per well of 1 ug/ml Sulfo-TAG Labeled Goat Anti-Rabbit Antibody (MSD) in 1% Blocker-A for 1 hour at room temperature with shaking. Assay plates were then washed and 150 μL of 1× Read Buffer-T (MSD) was added to each well prior to reading on an SQ120 MSD Plate Reader. Assay signal from each sample was subtracted by the signal from unstimulated control wells and normalized to DMSO control wells. IC50 values were calculated using Graph Pad Prism Dose-Response Nonlinear Regression with variable slope. For both pSTAT3 and pSTAT6 A=≤100 nM; B=>100-1000 nM; C=>1000-3000 nM; and D=>3 μM.

This note sets out measurements from patent US20260308186A1, “STAT DEGRADERS AND USES THEREOF” (Recludix Pharma, Inc., priority 2023, published 2026).

Structures are written as SMILES.

T3 sequence (P40763 127-722 limits assumed): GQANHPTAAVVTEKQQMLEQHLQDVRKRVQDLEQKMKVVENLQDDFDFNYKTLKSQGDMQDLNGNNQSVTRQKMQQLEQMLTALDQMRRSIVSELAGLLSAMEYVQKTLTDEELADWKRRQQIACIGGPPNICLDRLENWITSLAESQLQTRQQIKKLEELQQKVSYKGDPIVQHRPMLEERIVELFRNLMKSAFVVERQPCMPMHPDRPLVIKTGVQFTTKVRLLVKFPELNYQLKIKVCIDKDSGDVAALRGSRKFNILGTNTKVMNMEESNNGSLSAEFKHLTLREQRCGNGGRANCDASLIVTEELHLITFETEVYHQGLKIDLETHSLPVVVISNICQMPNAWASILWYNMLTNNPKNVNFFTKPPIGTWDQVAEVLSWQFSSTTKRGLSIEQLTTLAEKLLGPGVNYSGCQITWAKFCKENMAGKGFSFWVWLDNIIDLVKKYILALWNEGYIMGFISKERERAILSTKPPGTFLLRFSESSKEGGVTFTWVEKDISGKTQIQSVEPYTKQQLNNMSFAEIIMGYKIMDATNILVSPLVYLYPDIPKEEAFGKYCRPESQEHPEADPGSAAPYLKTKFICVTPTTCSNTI
T4 sequence (P40763 whole entry): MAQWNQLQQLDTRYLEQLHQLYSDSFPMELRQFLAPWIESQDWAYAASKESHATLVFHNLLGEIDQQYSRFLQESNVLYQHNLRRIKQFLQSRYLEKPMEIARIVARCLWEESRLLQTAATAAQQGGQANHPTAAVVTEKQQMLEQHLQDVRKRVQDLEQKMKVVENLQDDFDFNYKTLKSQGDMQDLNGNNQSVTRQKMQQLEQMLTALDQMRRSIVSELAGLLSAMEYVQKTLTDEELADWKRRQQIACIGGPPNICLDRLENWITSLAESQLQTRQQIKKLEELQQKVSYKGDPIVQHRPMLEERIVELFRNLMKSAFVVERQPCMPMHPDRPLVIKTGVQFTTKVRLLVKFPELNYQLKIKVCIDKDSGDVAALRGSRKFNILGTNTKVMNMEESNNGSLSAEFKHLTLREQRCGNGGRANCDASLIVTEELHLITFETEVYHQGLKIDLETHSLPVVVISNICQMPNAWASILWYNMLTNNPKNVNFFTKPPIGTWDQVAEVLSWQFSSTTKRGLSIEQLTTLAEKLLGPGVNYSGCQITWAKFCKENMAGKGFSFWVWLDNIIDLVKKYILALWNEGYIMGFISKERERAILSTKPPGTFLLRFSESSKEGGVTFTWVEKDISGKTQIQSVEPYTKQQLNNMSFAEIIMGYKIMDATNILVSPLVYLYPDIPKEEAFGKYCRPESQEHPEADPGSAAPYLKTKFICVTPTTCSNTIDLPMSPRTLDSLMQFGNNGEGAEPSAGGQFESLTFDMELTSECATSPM

In the case of `Cc1ccc2onc(C(=O)N3CC[C@H]4CC[C@@H](C(=O)N5CCN(c6ccc7c(c6)[nH]c(=O)n7C6CCC(=O)NC6=O)CC5)N4C(=O)[C@@H](NC(=O)c4ccc5ccc(C(F)(F)P(=O)(O)O)cc5c4)C3)c2c1` (stereo partly drawn) [Compound 34, ((7-(((5S,8S,10aR)-8-(4-(1-(2,6-dioxopiperidin-3-yl)-2-oxo-2,3-dihydro-1H-benzo[d]imidazol-5-yl)piperazine-1-carbonyl)-3-(5-methylbenzo[d]isoxazole-3-carbonyl)-6-oxodecahydropyrrolo[1,2-a][1,5]diazocin-5-yl)carbamoyl)naphthalen-2-yl)difluoromethyl)phosphonic acid], the IC50 on pSTAT6 is > 3 µM; on STAT6 it was < 0.3 µM; on STAT3, 1 to 10 µM.
With `Cc1ccc2onc(C(=O)N3CC[C@H]4CC[C@@H](C(=O)Nc5cccc6c5CN(C5CCC(=O)NC5=O)C6=O)N4C(=O)[C@@H](NC(=O)c4ccc5ccc(C(F)(F)P(=O)(O)O)cc5c4)C3)c2c1` (stereo partly drawn) [Compound 35, ((7-(((5S,8S,10aR)-8-((2-(2,6-dioxopiperidin-3-yl)-1-oxoisoindolin-4-yl)carbamoyl)-3-(5-methylbenzo[d]isoxazole-3-carbonyl)-6-oxodecahydropyrrolo[1,2-a][1,5]diazocin-5-yl)carbamoyl)naphthalen-2-yl)difluoromethyl)phosphonic acid], the IC50 on pSTAT6 is > 3 µM; at STAT6, < 0.3 µM; at STAT3 it was > 10 µM.
`Cc1ccc2onc(C(=O)N3CC[C@H]4CC[C@@H](C(=O)N5CCN(c6cccc7c6[nH]c(=O)n7C6CCC(=O)NC6=O)CC5)N4C(=O)[C@@H](NC(=O)c4ccc5ccc(C(F)(F)P(=O)(O)O)cc5c4)C3)c2c1` (stereo partly drawn) [Compound 36, ((7-(((5S,8S,10aR)-8-(4-(1-(2,6-dioxopiperidin-3-yl)-2-oxo-2,3-dihydro-1H-benzo[d]imidazol-4-yl)piperazine-1-carbonyl)-3-(5-methylbenzo[d]isoxazole-3-carbonyl)-6-oxodecahydropyrrolo[1,2-a][1,5]diazocin-5-yl)carbamoyl)naphthalen-2-yl)difluoromethyl)phosphonic acid]: the IC50 on pSTAT6 was > 3 µM; at STAT6, < 0.3 µM; at STAT3 it was 1 to 10 µM.
Take `Cc1ccc2onc(C(=O)N3CC[C@H]4CC[C@@H](C(=O)N5CCN(c6ccc7[nH]c(=O)n(C8CCC(=O)NC8=O)c7c6)CC5)N4C(=O)[C@@H](NC(=O)c4ccc5ccc(C(F)(F)P(=O)(O)O)cc5c4)C3)c2c1` (stereo partly drawn) [Compound 37, ((7-(((5S,8S,10aR)-8-(4-(3-(2,6-dioxopiperidin-3-yl)-2-oxo-2,3-dihydro-1H-benzo[d]imidazol-5-yl)piperazine-1-carbonyl)-3-(5-methylbenzo[d]isoxazole-3-carbonyl)-6-oxodecahydropyrrolo[1,2-a][1,5]diazocin-5-yl)carbamoyl)naphthalen-2-yl)difluoromethyl)phosphonic acid]: the IC50 was > 3 µM on pSTAT6, < 0.3 µM at STAT6 and > 10 µM at STAT3.
For `CCCC(=O)SCCOP(=O)(OCCSC(=O)CCC)C(F)(F)c1ccc2sc(C(=O)N[C@H]3CN(C(=O)CCCCCC#Cc4cccc5c4CN(C4CCC(=O)NC4=O)C5=O)CC[C@H]4CC[C@@H](C(=O)N5CC(c6cnccc6N(C)C)C5)N4C3=O)cc2c1` (stereo partly drawn) [Compound 38, S,S′-(((((2-(((5S,8S,10aR)-8-(3-(4-(dimethylamino)pyridin-3-yl)azetidine-1-carbonyl)-3-(8-(2-(2,6-dioxopiperidin-3-yl)-1-oxoisoindolin-4-yl)oct-7-ynoyl)-6-oxodecahydropyrrolo[1,2-a][1,5]diazocin-5-yl)carbamoyl)benzo[b]thiophen-5-yl)difluoromethyl)phosphoryl)bis(oxy))bis(ethane-2,1-diyl)) dibutanethioate], at pSTAT3, the IC50 was < 0.1 µM.
For `Cc1ccc2onc(C(=O)N3CC[C@H]4CC[C@@H](C(=O)N(C)CCCCCCC#Cc5cccc6c5CN(C5CCC(=O)NC5=O)C6=O)N4C(=O)[C@@H](NC(=O)c4ccc5ccc(C(F)P(=O)(O)O)cc5c4)C3)c2c1` (stereo partly drawn) [Compound 40, ((7-(((5S,8S,10aR)-8-((8-(2-(2,6-dioxopiperidin-3-yl)-1-oxoisoindolin-4-yl)oct-7-yn-1-yl)(methyl)carbamoyl)-3-(5-methylbenzo[d]isoxazole-3-carbonyl)-6-oxodecahydropyrrolo[1,2-a][1,5]diazocin-5-yl)carbamoyl)naphthalen-2-yl)fluoromethyl)phosphonic acid], the IC50 on pSTAT6 is > 3 µM; on STAT6, < 0.3 µM; on STAT3, > 10 µM.
